Source: patent publication US8703922B2, “Low-viscosity liquid crystal compound” (Chemgenesis Incorporated, priority 2009, dated 2014)

How the values were obtained:
Format in all cases: physicochemical
[1] = Viscosity measurement with AR Rheometer (AR-G2) of the compounds of Examples 1-11; conditions: 25° C., after allowing to stand for 12 hours
Description: (§1) The amphipathic compound according to the present invention is in a liquid or a semi-solid state with low viscosity within relatively a wide temperature range. The amphipathic compound according to the present invention preferably has viscosity of 11 Pa·s or less, generally 10 Pa·s or less, more preferably 4.0 Pa·s or less (e.g., 3.5 Pa·s or less), and further preferably 2.0 Pa·s or less, as measured using a viscometer at 25° C., for example. Such measured viscosity is typically measured at a shear rate of 105.7 l/s. To obtain such a measured value, an AR Rheometer (AR-G2, TA Instrument) or a viscosity and viscoelasticity measuring apparatus MARS (Thermo Fisher Scientific K.K.) can be used as a viscometer.
The viscosity of each of the compounds shown in the Examples 1-11 was measured using AR Rheometer (AR-G2, TA Instrument) after allowing to stand at the temperature of 25° C. for 12 hours.

[2] = Liquid crystal formation in compound/water system, analysed by small-angle X-ray scattering (SAXS); conditions: room temperature (25° C.); for Type of liquid crystal formed (SAXS peak ratio): 50 wt % (water-excess condition); for Lattice constant (ac) of the cubic liquid crystal: SAXS
Source text: Whether or not a liquid crystal structure has a cubic lattice may be determined by a small-angle X-ray scattering (SAXS) method, for the purpose of confirming whether or not it is cubic liquid crystal. First, an amphipathic compound/water system sample with a predetermined concentration can be added to an X-ray capillary tube made of quartz, for example, and the capillary tube is sealed with an oxy-fuel burner, and subjected to SAXS assay.
Ratio of Pn3m Cubic Liquid Crystal: √{square root over (2)}: √{square root over (3)}: √{square root over (4)}: √{square root over (6)}: √{square root over (8)}: √{square root over (9)}: √{square root over (10)}: , , , [Mathematical expression 1] Ratio of Ia3d Cubic Liquid Crystal: √{square root over (3)}: √{square root over (4)}: √{square root over (7)}: √{square root over (8)}: √{square root over (10)}: √{square root over (11)}: , , , [Mathematical expression 2] Ratio of Im3m Cubic Liquid Crystal: √{square root over (2)}: √{square root over (4)}: √{square root over (6)}: √{square root over (8)}: √{square root over (10)}: √{square root over (12)}: √{square root over (14)}: , , , [Mathematical expression 3]
A peak value is calculated from SAXS data and then the reciprocal ratio is found therefrom according to a method known by persons skilled in the art, so that the space group and the lattice constant can be easily determined.
Mono-O-(5,9,13,17-tetramethyloctadec-4-enoyl)pentaerythritol and pure water were introduced into a mixing device at the concentration of 50 wt % Mono-O-(5,9,13,17-tetramethyloctadec-4-enoyl)pentaerythritol (water-excess condition), and incubation thereof was carried out while performing 100 or more times of mixing operations at room temperature (25° C.) over the period of 24 hours. Thus, a homogeneously mixed sample of mono-O-(5,9,13,17-tetramethyloctadec-4-enoyl)pentaerythritol/water system was obtained. This sample of mono-O-(5,9,13,17-tetramethyloctadec-4-enoyl)pentaerythritol/water system appeared to be a white turbid gel composition.
Subsequently, the thus obtained sample of mono-O-(5,9,13,17-tetramethyloctadec-4-enoyl)pentaerythritol/water system was confirmed to be a cubic liquid crystal by small-angle x-ray scattering (SAXS). The sample of mono-O-(5,9,13,17-tetramethyloctadec-4-enoyl)pentaerythritol/water system was introduced into a quartz X-ray capillary tube, the tip of the capillary was sealed using an oxygen burner, and the capillary tube was subjected to the SAXS analysis. The NANO-Viewer nano-scale X-ray structure analysis equipment (Rigaku) was used for SAXS analysis. SAXS analysis was performed by X-ray irradiation at room temperature (25° C.), 40 kV, 50 mA, wavelength λ=0.1542 nm (Cu-Kα) for 15 min.

[3] = Viscosity measurement with viscosity and viscoelasticity measuring apparatus MARS (Example 179); conditions: 25° C., shear velocity 105.7 s^−1, MARS
Description: as §1
The viscosities of the amphiphilic compounds synthesized above were measured at 25° C. and at a shear velocity of 105.7 s^−1 using a viscosity and viscoelasticity measuring apparatus MARS (Thermo Fisher Scientific).

Molecule | Viscosity [1] [Pa·s] | Lattice constant (ac) of the cubic liquid crystal [2] [nm] | Viscosity (Pas · sec) [3] [Pas · sec] | Type of liquid crystal formed (SAXS peak ratio) [2]
CC(=CCCCOC[C@H](O)[C@H](O)CO)CCCC(C)CCCC(C)CCCC(C)C (some centres unmarked) [1-O-(5,9,13,17-tetramethyloctadec-4-enyl)erythritol] | 2.3 | – | – | reverse hexagonal liquid crystal
CC(=CCCCOC(CO)C(O)CO)CCCC(C)CCCC(C)CCCC(C)C (centres unmarked) [2-O-(5,9,13,17-tetramethyloctadec-4-enyl)erythritol] | 3.2 | 8.9 | – | cubic liquid crystal that belong to the crystallographic space group Pn3m
CC(=CCCC(=O)OCC(CO)(CO)CO)CCCC(C)CCCC(C)CCCC(C)C (centres unmarked) [Example 1, mono-O-(5,9,13,17-tetramethyloctadec-4-enoyl)pentaerythritol] | 1.7 | 7.80 | – | cubic liquid crystal that belong to the crystallographic space group Pn3m
CC(=CCCC(=O)OC[C@H](O)[C@H](O)CO)CCCC(C)CCCC(C)CCCC(C)C (some centres unmarked) [Example 2, mono-O-(5,9,13,17-tetramethyloctadec-4-enoyl)erythritol] | 2.0 | – | – | reverse hexagonal liquid crystal
CC(=CCCC(=O)OCC(O)CO)CCCC(C)CCCC(C)CCCC(C)C (centres unmarked) [Example 3, mono-O-(5,9,13,17-tetramethyloctadec-4-enoyl)glycerol] | – | – | – | cubic liquid crystal that belong to the crystallographic space group Pn3m
CC(=CCCCOC1OCC(O)C(O)C1O)CCCC(C)CCCC(C)CCCC(C)C [Example 9, 1-O-(5,9,13,17-tetramethyloctadec-4-enyl)-D-xylopyranoside] | – | 8.9 | – | cubic liquid crystal that belong to the crystallographic space group Pn3m
CC(=CCCCOCC(CO)(CO)CO)CCCC(C)CCCC(C)CCCC(C)C (centres unmarked) [Example 10, mono-O-(5,9,13,17-tetramethyloctadec-4-enyl)pentaerythritol] | 1.9 | – | – | reverse hexagonal liquid crystal
CC(=CCCCOCC(O)CO)CCCC(C)CCCC(C)CCCC(C)C (centres unmarked) [Example 31, mono-O-(5,9,13,17-tetramethyloctadec-4-enyl)glycerol] | – | – | 0.44 | –
CC(=CCCCOCC(O)COCC(O)CO)CCCC(C)CCCC(C)CCCC(C)C (centres unmarked) [Example 32, mono-O-(5,9,13,17-tetramethyloctadec-4-enyl)diglycerol] | – | – | – | cubic liquid crystal that belong to the crystallographic space group Pn3m
CC(=CC(=O)OCC(O)CO)CCCC(C)CCCC(C)CCCC(C)C (centres unmarked) [Example 65, mono-O-(3,7,11,15-tetramethylhexadec-2-enoyl)glycerol] | – | – | 1.1 | –
CC(=CC(=O)OCC(CO)(CO)CO)CCCC(C)CCCC(C)CCCC(C)C (centres unmarked) [Example 67, mono-O-(3,7,11,15-tetramethylhexadec-2-enoyl)pentaerythritol] | – | – | 10.6 | –
CC(=CC(=O)OCC(O)COCC(O)CO)CCCC(C)CCCC(C)CCCC(C)C (centres unmarked) [Example 68, mono-O-(3,7,11,15-tetramethylhexadec-2-enoyl)diglycerol] | – | – | 9.5 | –
CC(=CCCCOC1OCC(O)C(O)C1O)CCCC(C)CCCC(C)C [Example 103, 1-O-(5,9,13-trimethyltetradec-4-enyl)-D-xylopyranoside] | – | – | – | cubic liquid crystal that belong to the crystallographic space group Pn3m
CC(=CCCCOCC(O)CO)CCCC(C)CCCC(C)C (centres unmarked) [Example 107, mono-O-(5,9,13-trimethyltetradec-4-enyl)glycerol] | – | – | – | reverse hexagonal liquid crystal
CC(=CCC(=O)OCC(O)CO)CCCC(C)CCCC(C)C (centres unmarked) [Example 120, mono-O-(4,8,12-trimethyltridec-3-enoyl)glycerol] | – | – | – | cubic liquid crystal that belong to the crystallographic space group Pn3m
mono-O-(5,9,13,17-tetramethyloctadec-4-enoyl)di glycerol [Example 4] | – | – | 4.5 | reverse hexagonal liquid crystal

The next lines start with results.

Viscosity [1] [Pa·s] | Lattice constant (ac) of the cubic liquid crystal [2] [nm] | Viscosity (Pas · sec) [3] [Pas · sec] | Molecule | Type of liquid crystal formed (SAXS peak ratio) [2]
– | – | 0.45 | CC(=CCOCC(O)CO)CCCC(C)CCCC(C)CCCC(C)C (centres unmarked) [Example 80, mono-O-(3,7,11,15-tetramethylhexadec-2-enyl)glycerol] | –
– | – | 4.0 | CC(=CCOCC(CO)(CO)CO)CCCC(C)CCCC(C)CCCC(C)C (centres unmarked) [Example 82, mono-O-(3,7,11,15-tetramethylhexadec-2-enyl)pentaerythritol] | –
– | – | 0.48 | CC(=CCCC(=O)OCC(O)CO)CCCC(C)CCCC(C)C (centres unmarked) [Example 92, mono-O-(5,9,13-trimethyltetradec-4-enoyl)glycerol] | mixture of a cubic liquid crystal that belong to the crystallographic space group Pn3m and a reverse hexagonal liquid crystal
– | – | 10.5 | CC(=CCCC(=O)OCC(O)COCC(O)CO)CCCC(C)CCCC(C)C (centres unmarked) [Example 95, mono-O-(5,9,13-trimethyltetradec-4-enoyl)diglycerol] | –
– | – | 0.98 | CC(=CCCCOCC(CO)(CO)CO)CCCC(C)CCCC(C)C (centres unmarked) [Example 109, mono-O-(5,9,13-trimethyltetradec-4-enyl)pentaerythritol] | –
– | – | 1.7 | CC(=CCCCOCC(O)COCC(O)CO)CCCC(C)CCCC(C)C (centres unmarked) [Example 110, mono-O-(5,9,13-trimethyltetradec-4-enyl)diglycerol] | –
– | – | 0.45 | CC(=CC(=O)OCC(O)CO)CCCC(C)CCCC(C)C (centres unmarked) [Example 146, mono-O-(3,7,11-trimethyldodec-2-enoyl)glycerol] | cubic liquid crystal that belong to the crystallographic space group Pn3m
– | – | 7.1 | CC(=CC(=O)OC[C@H](O)[C@H](O)CO)CCCC(C)CCCC(C)C (some centres unmarked) [Example 147, mono-O-(3,7,11-trimethyldodec-2-enoyl)erythritol] | –
– | – | 6.9 | CC(=CC(=O)OCC(O)COCC(O)CO)CCCC(C)CCCC(C)C (centres unmarked) [Example 149, mono-O-(3,7,11-trimethyldodec-2-enoyl)diglycerol] | –
– | – | 2.7 | CC(=CCOCC(CO)(CO)CO)CCCC(C)CCCC(C)C (centres unmarked) [Example 163, mono-O-(3,7,11-trimethyldodec-2-enyl)pentaerythritol] | –
– | – | 1.1 | CC(=CCOC[C@H](O)[C@@H](O)[C@H](O)CO)CCCC(C)CCCC(C)C (some centres unmarked) [Example 166, mono-O-(3,7,11-trimethyldodec-2-enyl)xylitol] | –
